Measurements: US11117926B2, “Cholane derivatives for use in the treatment and/or prevention of FXR and TGR5/GPBAR1 mediated diseases” (BAR PHARMACEUTICALS S.R.L., priority 2014, dated 2021)
Counter-ions that a name gives are not always drawn.

Legend:
FXR = molecular target: T1, FXR (Homo sapiens, UniProt Q96RI1); test: FXR mediated transactivation (luciferase reporter) in transfected HepG2 cells; assay type: cell-based; conditions: each compound at 10 microM, transactivation activity of CDCA on FXR = 100%
T1 construct: expressed in transfected cells; host or cells: HepG2
T1 sequence (Q96RI1 1-486): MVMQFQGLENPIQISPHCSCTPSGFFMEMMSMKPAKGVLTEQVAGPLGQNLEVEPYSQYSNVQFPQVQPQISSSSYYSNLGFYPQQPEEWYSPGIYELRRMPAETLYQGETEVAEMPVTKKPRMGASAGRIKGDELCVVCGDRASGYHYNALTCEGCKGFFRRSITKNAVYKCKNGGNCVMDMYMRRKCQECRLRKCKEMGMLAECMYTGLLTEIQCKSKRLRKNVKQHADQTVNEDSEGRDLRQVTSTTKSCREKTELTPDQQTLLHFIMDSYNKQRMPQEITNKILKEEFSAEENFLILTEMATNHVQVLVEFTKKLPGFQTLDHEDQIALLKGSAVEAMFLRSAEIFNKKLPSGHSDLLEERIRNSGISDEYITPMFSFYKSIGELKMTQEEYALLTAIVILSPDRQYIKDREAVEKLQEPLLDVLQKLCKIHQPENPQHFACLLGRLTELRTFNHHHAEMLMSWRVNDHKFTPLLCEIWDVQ
T1 sequence (P19793 1-462 partner): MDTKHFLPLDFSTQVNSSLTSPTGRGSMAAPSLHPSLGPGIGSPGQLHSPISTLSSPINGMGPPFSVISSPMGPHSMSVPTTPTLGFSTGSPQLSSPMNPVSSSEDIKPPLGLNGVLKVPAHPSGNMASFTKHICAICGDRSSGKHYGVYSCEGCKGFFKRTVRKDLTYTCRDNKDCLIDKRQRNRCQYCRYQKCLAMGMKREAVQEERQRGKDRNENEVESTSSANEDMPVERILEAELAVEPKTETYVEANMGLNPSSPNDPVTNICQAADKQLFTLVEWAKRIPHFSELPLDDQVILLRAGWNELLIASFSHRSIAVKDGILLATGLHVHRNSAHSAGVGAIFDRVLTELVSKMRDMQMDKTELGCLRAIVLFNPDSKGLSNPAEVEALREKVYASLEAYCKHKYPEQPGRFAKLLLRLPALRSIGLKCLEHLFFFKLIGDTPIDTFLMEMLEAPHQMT
Procedure: (§1) Each compound was tested at the concentration of 10 microM and transactivation activity of CDCA on FXR and TLCA on CRE (i.e. TGR5/GPBAR1) was considered equal to 100%.
(§2) Biological Activities. Activity of selected compounds was tested in vitro using a whole cell model transfected with a reporter genes to establish selectivity of compounds shown in table 1 toward FXR and TGR5/GPBAR1 in comparison with chenodeoxycholic acid (CDCA) and TLCA. CDCA is a primary bile acid that functions as an endogenous ligand for FXR, while TLCA is a physiological ligand for TGR5/GPBAR1. In this assay, HepG2 cells (a liver-derived cell line) were cultured at 37° C. in minimum essential medium with Earl's salts containing 10% fetal bovine serum (FBS), 1% L-glutamine, and 1% penicillin/streptomycin. […] The transfection experiments were performed using Fugene HD according to manufactured specifications. Cells were plated in a 24-well plate at 5×10^4 cells/well. For FXR mediated transactivation, HepG2 cells were transfected with 100 ng of pSG5-FXR, 100 ng of pSG5-RXR, 100 ng of pGL4.70 a vector encoding the human Renilla gene and 250 ng of the reporter vector p(hsp27)-TK-LUC containing the FXR response element IR1 cloned from the promoter of heat shock protein 27 (hsp27).
(§3) At 24 h post-transfection, cells were stimulated for 18 h with 10 μM TLCA as a control agent or putative GPBAR1 agonists as the same concentration. After treatments, cells were lysed in 100 μL of lysis buffer (25 mM Tris-phosphate, pH 7.8; 2 mM DTT; 10% glycerol; 1% Triton X-100), and 20 μL of cellular lysate was assayed for luciferase activity using the luciferase assay system. Luminescence was measured using Glomax 20/20 luminometer. Luciferase activities were normalized against Renilla activities. Antagonism against FXR of GPBAR1/TGR5 was measured as percent of activity in transactivation assay suing activity of TLCA as example of agonism.

human GPBAR1 = molecular target: T2, human GPBAR1 (Homo sapiens, UniProt Q8TDU6); test: GPBAR1 mediated transactivation (CRE luciferase reporter) in transfected HEK-293T cells; assay type: cell-based; conditions: each compound at 10 microM, transactivation activity of TLCA on CRE = 100%
T2 construct: expressed in transfected cells; host or cells: HEK-293T
T2 sequence (Q8TDU6 1-330): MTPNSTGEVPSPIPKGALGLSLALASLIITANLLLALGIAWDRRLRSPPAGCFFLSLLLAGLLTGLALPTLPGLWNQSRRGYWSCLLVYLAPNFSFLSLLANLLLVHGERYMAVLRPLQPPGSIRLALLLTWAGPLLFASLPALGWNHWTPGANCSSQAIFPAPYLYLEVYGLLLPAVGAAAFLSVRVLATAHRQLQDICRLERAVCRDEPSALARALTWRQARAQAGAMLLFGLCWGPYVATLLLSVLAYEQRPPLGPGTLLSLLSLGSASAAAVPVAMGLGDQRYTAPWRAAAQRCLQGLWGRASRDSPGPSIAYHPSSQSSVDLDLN
Procedure: as §1, §2, §3

SMILES	FXR (% of activity in comparison to 10 μM CDCA) (FXR)	GPBAR1 (% of activity in comparison to 10 μM TLCA) (human GPBAR1)
CC[C@H]1[C@@H](O)C2C3CC[C@H]([C@H](C)CCCCCOS(=O)(=O)O)[C@@]3(C)CCC2[C@@]2(C)CC[C@@H](O)C[C@@H]12 (stereo partly drawn) [BAR804, 6α-ethyl-3α, 7α-dihydroxy-25, 26-bishomo-5β-cholan-26-yl-26-sodium sulfate]	196.5 ± 6.5%	52.5 ± 3.5%
C[C@H](CCCOS(=O)(=O)O)[C@H]1CCC2C3C(CC[C@@]21C)[C@@]1(C)CCCC[C@H]1C[C@H]3O (stereo partly drawn) [BAR402, 7α-hydroxy-5β-cholan-24-yl-24-sodium sulfate]	336.4 ± 20.8%	28.0 ± 1.8%
CC[C@H]1[C@@H](O)[C@@H]2[C@H](CC[C@]3(C)[C@@H]([C@H](C)CCCOS(=O)(=O)[O-])CC[C@@H]23)[C@@]2(C)CCCC[C@@H]12.[Na+] [BAR701solf, 6α-ethyl-7α-hydroxy-5β-cholan-24-yl 24-sodium sulfate]	229 ± 2.0%	63.5 ± 0.5%
CC[C@@H]1[C@@H](O)[C@@H]2[C@H](CC[C@]3(C)[C@@H]([C@H](C)CCCO)CC[C@@H]23)[C@@]2(C)CC[C@H](O)C[C@@H]12 [BAR709, 6β-ethyl-3β,7α-dihydroxy-5β-cholan-24-ol]	33.7 ± 2.0%	54.2 ± 0.3%
CC[C@H]1[C@@H](O)C2C3CC[C@H]([C@H](C)CC(=O)O)[C@@]3(C)CCC2[C@@]2(C)CCCC[C@@H]12 (stereo partly drawn) [BARn704, 6α-ethyl-7α-hydroxy-24-nor-5β-cholan-23-oic acid]	202.5 ± 1.5%	64 ± 2.0%
CC[C@H]1[C@@H](O)C2C3CC[C@H]([C@H](C)CC(=O)O)[C@@]3(C)CCC2[C@@]2(C)CC[C@H](O)C[C@@H]12 (stereo partly drawn) [BARn710, 6α-ethyl-3β,7α-dihydroxy-24-nor-5β-cholan-23-oic acid]	142 ± 1.0%	75 ± 8.0%
C[C@H](CCOS(=O)(=O)[O-])[C@H]1CC[C@H]2[C@@H]3[C@@H](O)C[C@@H]4C[C@H](O)CC[C@]4(C)[C@H]3CC[C@]12C.[Na+] [BAR106, 3α,7β-dihydroxy-24-nor-5β-cholan-23-yl-23-sodium sulfate]	0%	19.0 ± 1.3%
CC[C@H]1[C@@H](O)C2C3CC[C@H]([C@H](C)CCOS(=O)(=O)O)[C@@]3(C)CCC2[C@@]2(C)CC[C@H](O)C[C@@H]12 (stereo partly drawn) [BARn706solf, 6α-ethyl-3β,7α-dihydroxy-24-nor-5β-cholan-23-yl 23-sodium sulfate]	–	71.5 ± 0.5%
CC[C@@H]1[C@@H](O)[C@@H]2[C@H](CC[C@]3(C)[C@@H]([C@H](C)CCCO)CC[C@@H]23)[C@@]2(C)CC[C@@H](O)C[C@@H]12 [BAR504-6b, 6β-ethyl-3α,7α-dihydroxy-5β-cholan-24-ol]	32.4 ± 14.1%	75.3 ± 3.4%
CC=C1[C@H](O)[C@@H]2[C@H](CC[C@]3(C)[C@@H]([C@H](C)CCCO)CC[C@@H]23)[C@@]2(C)CC[C@@H](O)C[C@@H]12 [BAR503, 6-ethylidene-3α,7β-dihydroxy-5β-cholan-24-ol]	68.8 ± 26.6%	59.8 ± 0.1%
CC[C@H]1[C@H](O)[C@@H]2[C@H](CC[C@]3(C)[C@@H]([C@H](C)CCCO)CC[C@@H]23)[C@@]2(C)CC[C@H](O)C[C@@H]12 [BAR707, 6α-ethyl-3β,7β-dihydroxy-5β-cholan-24-ol]	92.5 ± 7.5%	65 ± 6.0%
C[C@H](CCCCC(=O)O)[C@H]1CCC2C3C(CC[C@@]21C)[C@@]1(C)CC[C@@H](O)C[C@H]1C[C@@H]3O (stereo partly drawn) [BAR305, 3α, 7β-dihydroxy-25, 26-bishomo-5β-cholan-26-oic acid]	0%	23.9 ± 4.0%
CC[C@@H]1[C@@H](O)[C@@H]2[C@H](CC[C@]3(C)[C@@H]([C@H](C)CCCO)CC[C@@H]23)[C@@]2(C)CCCC[C@@H]12 [BAR705, 6β-ethyl-7α-hydroxy-5β-cholan-24-ol]	43.7 ± 3.9%	67.0 ± 9.9%
CC[C@@H]1[C@H](O)[C@@H]2[C@H](CC[C@]3(C)[C@@H]([C@H](C)CCCO)CC[C@@H]23)[C@@]2(C)CC[C@H](O)C[C@@H]12 [BAR708, 6β-ethyl-3β,7β-dihydroxy-5β-cholan-24-ol]	6.4 ± 0.8%	57.6 ± 4.6%
CC[C@H]1[C@@H](O)C2C3CC[C@H]([C@H](C)CCO)[C@@]3(C)CCC2[C@@]2(C)CCCC[C@@H]12 (stereo partly drawn) [BARn701, 6α-ethyl-7α-hydroxy-24-nor-5β-cholan-23-ol]	90 ± 22%	55 ± 1.0%
CC[C@H]1[C@H](O)[C@@H]2[C@H](CC[C@]3(C)[C@@H]([C@H](C)CCCO)CC[C@@H]23)[C@@]2(C)CC[C@@H](O)C[C@@H]12 [BAR501-6a, 6α-ethyl-3α,7β-dihydroxy-5β-cholan-24-ol]	15.4 ± 1.2%	46.6 ± 6.7%
CC[C@@H]1[C@H](O)[C@@H]2[C@H](CC[C@]3(C)[C@@H]([C@H](C)CCCO)CC[C@@H]23)[C@@]2(C)CC[C@@H](O)C[C@@H]12 [BAR501, 6β-ethyl-3α,7β-dihydroxy-5β-cholan-24-ol]	9.9 ± 0.1%	64.5 ± 0.5%
CC[C@H]1[C@H](O)[C@@H]2[C@H](CC[C@]3(C)[C@@H]([C@H](C)CCCO)CC[C@@H]23)[C@@]2(C)CCCC[C@@H]12 [BAR703, 6α-ethyl-7β-hydroxy-5β-cholan-24-ol]	8.6 ± 0.8%	47.7 ± 1.0%
CC[C@@H]1[C@H](O)C2C3CC[C@H]([C@H](C)CCO)[C@@]3(C)CCC2[C@@]2(C)CC[C@@H](O)C[C@@H]12 (stereo partly drawn) [BARn501, 6β-ethyl-3α, 7β-dihydroxy-24-nor-5β-cholan-23-ol]	8.5 ± 1.4%	83.1 ± 7.4%
C[C@H](CCCCCO)[C@H]1CCC2C3C(CC[C@@]21C)[C@@]1(C)CC[C@@H](O)C[C@H]1C[C@@H]3O (stereo partly drawn) [BAR304, 25, 26-bishomo-5β-cholan-3α, 7β, 26-triol]	0%	55.1 ± 12.5%
